The subject of one series is C. albicans. It is filed as cell-based, Candida albicans. Here is the method:
(§1) All the tested microbes were cultured at 37°C except C. albicans (30°C) in respective medium. 90 μl of cell suspension (2–4 x10^6 cfu/ml) mixed with 10 μl of diluted TP4 were loaded in 96-well microplate and incubated overnight with gentle agitation at 100 rpm. The absorbance of TP4-treated bacteria in 96-well plate was measured by SpectraMax 190 microplate reader at 600 nm. The remaining cfu in the TP4-treated sample was determined by plating on agar plates. Minimum inhibitory concentration (MIC) was defined as the lowest AMP concentration in order to keep the solution with the same absorbance as that of culture medium. Minimum bactericidal concentration (MBC) was defined as the lowest AMP concentration able to kill 99.99% of microorganisms. At least three independent experiments were performed to determine the average value with standard deviation.

A further series deals with P. aeruginosa. It is filed as cell-based, Pseudomonas aeruginosa. The procedure:
as §1

In another series the test system is mouse red blood cells. It is filed as cell-based. Here is the method:
For blood collection, cardiac puncture was performed on anesthetized mice (by 3% isoflurane) by a 1 ml heparin-rinsed syringe with a 22 gauge needle. After blood collection, the animals were euthanized by cervical dislocation. Fresh mouse blood was rinsed three times with PBS, centrifuged for 5 minutes at 1500 rpm and re-suspended in PBS (1:30 dilution). The diluted erythrocyte (150 μl) was incubated with TP4-derived peptides at 37°C for 3 hr and centrifuged at 120x g for 5 minutes. The supernatants (100 μl) were transferred to a 96-well plate and the absorbance of released hemoglobin was measured by SpectraMax 190 microplate reader at 414 nm. Percent hemolysis was calculated by the following formula: % hemolysis = [(A414in the peptide solution−A414in PBS)/(A414in 0.1% Triton-X 100 –A414in PBS)]. Zero and 100% hemolysis were determined in PBS and 0.1% Triton-X 100, respectively.
Fig 8 Hemolytic activity of TP4-derived peptides. Diluted mouse red blood cells (150 μl) was incubated with TP4-derived peptides at 37°C for 3 hr and spun at 120 x g for 5 minutes. The supernatants (100 μl) were transferred to a 96-well plate for measurement of released hemoglobulin at 414 nm by the SpectraMax 190 microplate reader.

In a further series the test system is MRSA. It is filed as cell-based, methicillin-resistant Staphylococcus aureus. Here is the method:
as §1

A further series has as its system S. aureus. It is filed as cell-based, Staphylococcus aureus. Here is the method:
as §1

Results on 18 molecules are retold here after paper PMC5645128, “Hydrophobic residues are critical for the helix-forming, hemolytic and bactericidal activities of amphipathic antimicrobial peptide TP4” (PLoS ONE, 2017).

Converted amounts (≈) assume the structure as drawn. Ends that are not written are not given here.

Broadly, the MIC is the smallest concentration in the dilution series that meets the test's criterion for growth inhibition. As to `CC[C@H](C)[C@H](NC(=O)[C@H](CO)NC(=O)[C@H](Cc1ccccc1)NC(=O)[C@H](CC(C)C)NC(=O)CNC(=O)CNC(=O)[C@@H](NC(=O)[C@@H](NC(=O)[C@H](Cc1c[nH]cn1)NC(=O)[C@H](Cc1c[nH]cn1)NC(=O)[C@@H](NC(=O)[C@@H](N)Cc1ccccc1)[C@@H](C)CC)[C@@H](C)CC)[C@@H](C)CC)C(=O)NCC(=O)N[C@@H](CCCCN)C(=O)N[C@H](C(=O)N[C@H](C(=O)N[C@@H](Cc1c[nH]cn1)C(=O)N[C@@H](CCCNC(=N)N)C(=O)N[C@@H](CC(C)C)C(=O)N[C@H](C(=O)N[C@@H](CCCNC(=N)N)C(=O)N[C@@H](CCCNC(=N)N)C(=O)N[C@@H](CCCNC(=N)N)C(=O)N[C@@H](CCCNC(=N)N)C(=O)N[C@@H](CCCNC(=N)N)C(=O)O)[C@@H](C)CC)[C@@H](C)CC)[C@@H](C)CC` [A12I/A15I], the MBC with C. albicans is 128 mg/L (≈ 41.8 µM); in the series on P. aeruginosa it was over 512 mg/L; against MRSA, 256 mg/L (≈ 83.5 µM); in the series on S. aureus it was 64 mg/L (≈ 20.9 µM). Besides, the minimal inhibitory concentration (MIC) against C. albicans turned out to be 128 mg/L (≈ 41.8 µM); with P. aeruginosa it was 512 mg/L (≈ 167 µM); against MRSA, 64 mg/L (≈ 20.9 µM); in the series with S. aureus, 16 mg/L (≈ 5.22 µM). In the series on mouse red blood cells, the “hemolytic activity compared with wild type TP4” value is on record as “four times higher activity than wild type TP4”.

With AAHHIIGGLFSAGKAIHRLIRRRRR [F1A/I2A], the MBC with C. albicans is 128 mg/L; in the series with P. aeruginosa, 256 mg/L; in the series on MRSA, over 512 mg/L; in the series on S. aureus, 256 mg/L. For the same molecule, the minimum inhibitory concentration (MIC) was 64 mg/L in the series with C. albicans, 256 mg/L in the series with P. aeruginosa, over 512 mg/L with MRSA and 128 mg/L against S. aureus.

In the case of FIAAIIGGLFSAGKAIHRLIRRRRR [H3A/H4A], the MBC is 512 mg/L in the series on C. albicans, over 512 mg/L in the series with P. aeruginosa, 256 mg/L against MRSA and 32 mg/L against S. aureus. Further, the minimum inhibitory concentration (MIC) was 512 mg/L against C. albicans, over 512 mg/L in the series on P. aeruginosa, 128 mg/L with MRSA and 32 mg/L in the series with S. aureus.

Take FIHHAAGGLFSAGKAIHRLIRRRRR [I5A/I6A]: the MBC was 128 mg/L against C. albicans, 512 mg/L with P. aeruginosa, over 512 mg/L against MRSA and over 512 mg/L with S. aureus. The MIC is 128 mg/L in the series on C. albicans, 512 mg/L with P. aeruginosa, over 512 mg/L against MRSA and over 512 mg/L in the series with S. aureus.

For FIHHIIGGAASAGKAIHRLIRRRRR [L9A/F10A], the MBC in the series on C. albicans was 128 mg/L; against P. aeruginosa, over 512 mg/L; in the series on MRSA, over 512 mg/L; in the series on S. aureus, over 512 mg/L. For the same molecule, the minimum inhibitory concentration (MIC) was 128 mg/L with C. albicans, over 512 mg/L with P. aeruginosa, over 512 mg/L in the series with MRSA and over 512 mg/L in the series on S. aureus.

FIHHIIGGLFSAGKAAHRLIRRRRR [I16A]: the MBC in the series on C. albicans was 128 mg/L; in the series with P. aeruginosa, over 512 mg/L; against MRSA, 512 mg/L; with S. aureus, 128 mg/L. Besides, the MIC against C. albicans was determined as 128 mg/L; in the series on P. aeruginosa, 256 mg/L; in the series with MRSA it was 64 mg/L; with S. aureus, 64 mg/L.

FIHHIIGGLFSAGKAEHRLIRRRRR [I16E]: the MBC in the series on C. albicans is 128 mg/L; against P. aeruginosa, over 512 mg/L; against MRSA it was over 512 mg/L; with S. aureus, over 512 mg/L. Further, the MIC is 128 mg/L in the series on C. albicans, over 512 mg/L with P. aeruginosa, over 512 mg/L against MRSA and over 512 mg/L in the series with S. aureus.

As for FIHHIIGGLFSAGKAIHRHHRRRRR [L19H/I20H], the MBC is 128 mg/L in the series on C. albicans, over 512 mg/L in the series with P. aeruginosa, over 512 mg/L against MRSA and 512 mg/L in the series with S. aureus. Moreover, the minimal inhibitory concentration (MIC) against C. albicans was 128 mg/L; in the series with P. aeruginosa it was 256 mg/L; in the series with MRSA it was over 512 mg/L; in the series on S. aureus, 128 mg/L.

On to FIHHIIGGLFSAGKAIHRLIR [dC4], for which the MBC in the series on C. albicans is 256 mg/L; against P. aeruginosa, over 512 mg/L; with MRSA, 256 mg/L; against S. aureus it was 128 mg/L. For the same molecule, the MIC is 128 mg/L against C. albicans, over 512 mg/L with P. aeruginosa, 256 mg/L with MRSA and 64 mg/L against S. aureus.

FIHHIIGGLFSAGKAIHRLIRRR [dC2]: the MBC was 128 mg/L with C. albicans, over 512 mg/L with P. aeruginosa, 32 mg/L against MRSA and 32 mg/L with S. aureus. Also, the minimum inhibitory concentration (MIC) stood at 128 mg/L in the series with C. albicans, 512 mg/L against P. aeruginosa, 32 mg/L in the series with MRSA and 16 mg/L in the series on S. aureus.

Take FIHHIIGGLFSAGKAIHRLIRRRRR [TP4]: the MBC against C. albicans stood at 128 mg/L; in the series with P. aeruginosa it was 128 mg/L; against MRSA, 32 mg/L; with S. aureus, 16 mg/L. Moreover, the minimum inhibitory concentration (MIC) against C. albicans is 128 mg/L; in the series on P. aeruginosa, 64 mg/L; against MRSA it was 16 mg/L; with S. aureus, 8 mg/L.

Consider FIHHIIGGLFSAGKAIHSLIHRRRR [R18S/R21H], for which the MBC in the series with C. albicans worked out at 512 mg/L; in the series on P. aeruginosa, 512 mg/L; in the series on MRSA, 32 mg/L; with S. aureus, 64 mg/L. The minimum inhibitory concentration (MIC) with C. albicans was 256 mg/L; in the series with P. aeruginosa it was 256 mg/L; in the series on MRSA, 32 mg/L; in the series on S. aureus, 32 mg/L.

As for FIHHIIGGLFSAGKARHRLIRRRRR [I16R], the MBC in the series with C. albicans is 256 mg/L; in the series with P. aeruginosa, over 512 mg/L; in the series on MRSA, over 512 mg/L; against S. aureus, over 512 mg/L. Moreover, the MIC in the series on C. albicans was 128 mg/L; in the series on P. aeruginosa, over 512 mg/L; with MRSA, over 512 mg/L; in the series on S. aureus it was over 512 mg/L.

In the case of FIHHIIGGLFSVGKHIHRLIRRRRR [A12V/A15H], the MBC worked out at 128 mg/L with C. albicans, 128 mg/L against P. aeruginosa, 64 mg/L against MRSA and 16 mg/L with S. aureus. Besides, the MIC against C. albicans was 128 mg/L; in the series with P. aeruginosa it was 128 mg/L; with MRSA, 32 mg/L; in the series on S. aureus, 16 mg/L.

On to “FIHHIIGGLFSVGKHIHSLIHGH [TP3, reference compound]”, for which the MBC in the series on C. albicans was 128 mg/L; against P. aeruginosa it was over 512 mg/L; against MRSA, over 512 mg/L; against S. aureus, 256 mg/L. Moreover, the MIC was 128 mg/L against C. albicans, over 512 mg/L against P. aeruginosa, 256 mg/L in the series on MRSA and 256 mg/L against S. aureus.

Regarding FIHHIIGGLFSVGKHIHSLIHRRRR [VHSH], the MBC is 128 mg/L in the series with C. albicans, over 512 mg/L in the series on P. aeruginosa, 32 mg/L in the series with MRSA and 16 mg/L in the series with S. aureus. Also, the minimum inhibitory concentration (MIC) was 128 mg/L against C. albicans, over 512 mg/L in the series with P. aeruginosa, 16 mg/L against MRSA and 16 mg/L in the series with S. aureus.

Consider HHIIGGLFSAGKAIHRLIRRRRR [dN2], for which the MBC was 128 mg/L against C. albicans, over 512 mg/L in the series with P. aeruginosa, over 512 mg/L against MRSA and 512 mg/L in the series with S. aureus. Also, the minimal inhibitory concentration (MIC) in the series with C. albicans is 128 mg/L; against P. aeruginosa, 512 mg/L; in the series with MRSA, over 512 mg/L; against S. aureus, 512 mg/L.

As to IIGGLFSAGKAIHRLIRRRRR [dN4], the MBC against C. albicans is 128 mg/L; with P. aeruginosa it was over 512 mg/L; against MRSA, 256 mg/L; against S. aureus, 128 mg/L. In addition, the MIC came to 64 mg/L against C. albicans, 256 mg/L against P. aeruginosa, 64 mg/L in the series on MRSA and 128 mg/L in the series with S. aureus.
